This passage reports Ki results from patent EP0942911B1, “BENZOPYRANOPYRROLE AND BENZOPYRANOPYRIDINE ALPHA-1 ADRENERGIC COMPOUNDS” (Abbott Laboratories, priority 1996, dated 1998).

Assay in all cases: biochemical
Assay [1] deals with T1, α-1A adrenoreceptor (rat submaxillary gland) (Rattus norvegicus, UniProt P43140).
T1 sequence (P43140 1-466): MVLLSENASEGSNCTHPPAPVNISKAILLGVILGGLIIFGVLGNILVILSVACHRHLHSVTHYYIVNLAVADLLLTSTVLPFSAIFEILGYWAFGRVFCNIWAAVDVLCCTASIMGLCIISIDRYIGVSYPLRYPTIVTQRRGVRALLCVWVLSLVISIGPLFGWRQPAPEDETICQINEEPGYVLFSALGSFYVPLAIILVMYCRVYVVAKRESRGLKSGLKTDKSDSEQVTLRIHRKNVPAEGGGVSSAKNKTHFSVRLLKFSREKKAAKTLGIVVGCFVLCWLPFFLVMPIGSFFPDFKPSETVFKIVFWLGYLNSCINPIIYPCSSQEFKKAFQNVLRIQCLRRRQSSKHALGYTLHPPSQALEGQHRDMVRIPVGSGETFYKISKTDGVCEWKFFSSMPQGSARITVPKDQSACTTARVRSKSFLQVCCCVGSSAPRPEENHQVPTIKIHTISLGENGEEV
It is filed as binding. The following applies: [3H]-prazosin radioligand; rat submaxillary gland membranes; read-out: Radioligand Binding (Ki, nM) 1A (Rat). As for the experimental part:
Additionally, binding affinity against the pharrnacologically defined α-1A adrenoreceptor (rat submaxillary gland) was measured.
(§1) On the fifth day of culture, growth medium was removed from cells grown in roller bottles, and the cells were washed twice with PBS (Sigma, 120 mM NaCl, 2.7 mM KCl, 10 mM Na2HPO4-NaH2PO4, pH = 7.4). Cells were detached from the roller bottles by incubating for 15 minutes at 37 °C in a Tris-EDTA solution (10 mM Tris, 100 mM NaCl, 1 mM EDTA, pH = 7.4). The cell suspension from each roller bottle was decanted into tared centrifuge tubes and kept on ice. An aliquot of each cell suspension was generally taken for cell counting. Cells were centrifuged at 3000 X G for 5 min at 2-4 °C, washed with PBS and recentrifuged. The supernatant was decanted and the pellet weighed to determine the wet weight of cells. Cells were washed a final time in 40 vol 5 mM Tris-HCl, 5 mM EDTA, pH = 7.7, and centrifuged at 40,000 X G for 10 minutes. Cells were homogenized in 10 mL of 50 mM Tris-HCl, 5 mM EDTA (pH = 7.4) and diluted to 40 mL/tube. Homogenates were centrifuged at 40,000 X G for 10 minutes. The supernatant was decanted and the pellets rehomogenized in 50 mM Tris-HCl (pH = 7.4) and centrifuged as before. The supernatant was decanted and the homogenate resuspended in 6.25 volumes (per gram wet weight) of 50 mM Tris-HCl and aliquots of the pooled homogenates frozen in liquid N2 and stored at -70 °C until the time of assay. Rat submaxillary glands were used for α-1A adrenoreceptors and were prepared essentially as described (Michel, A. D., Loury, D. N. and Whiting, R. L., Brit. J. Pharmacol. 98: 83-889 (1989)).
(§2) Receptor binding assays for α-1 adrenoreceptors were performed essentially as described by Greengrass and Bremner (Eur. J. Pharmacol. 55: 323-326 (1979)). […] Radioactivity was determined by standard liquid scintillation techniques. Data were analyzed as previously described (Hancock, A. A., Kyncl, J. J., Martin, Y. C. and DeBernardis, J. F., J. Receptor Res. 8: 23-46 (1988)).

The target in assay [2] is T2, α-1a adrenoreceptor (Bos taurus, UniProt P18130).
T2 sequence (P18130 1-466): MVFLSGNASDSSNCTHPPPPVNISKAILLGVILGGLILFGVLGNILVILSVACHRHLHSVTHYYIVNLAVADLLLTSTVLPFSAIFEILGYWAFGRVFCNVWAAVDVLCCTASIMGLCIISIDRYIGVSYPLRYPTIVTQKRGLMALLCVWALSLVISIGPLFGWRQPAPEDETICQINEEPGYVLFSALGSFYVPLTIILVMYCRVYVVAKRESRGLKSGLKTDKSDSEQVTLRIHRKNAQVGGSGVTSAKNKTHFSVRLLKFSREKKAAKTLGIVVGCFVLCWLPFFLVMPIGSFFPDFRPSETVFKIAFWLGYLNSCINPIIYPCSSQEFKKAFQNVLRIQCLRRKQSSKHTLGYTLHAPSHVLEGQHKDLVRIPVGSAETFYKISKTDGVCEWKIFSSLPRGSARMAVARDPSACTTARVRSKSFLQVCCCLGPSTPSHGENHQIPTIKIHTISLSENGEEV
It is filed as binding, bovine. Particulars: [3H]-prazosin radioligand; cloned receptor in LTK cell membranes; read-out: Radioligand Binding (Ki, nM) 1a (Bovine).
Description: (§3) The cDNA clones encoding the α-1 adrenoreceptors (α-1a, α-1b, and α-1d) were obtained from TULCO (Triangle Universities Licensing Consortium, Research Triangle Park, NC) and inserted into the eukaryotic expression vector SnaB30. In this vector, expression of the adrenoreceptor gene is under the transcriptional control of an SV40 early promoter. Positive drug selection is provided by a neomycin-resistance gene. Mouse fibroblast cells (LTK) were transfected with the α1 expression plasmids and grown in Dulbecco's modified Eagle's medium (DMEM) containing 10% fetal calf serum and 30 µM G418. Stable G418-resistant parental lines were generated, with successful expression of adrenoreceptor protein monitored using radioligand binding techniques. Stable single cell clones derived from the parental lines were screened in adrenoreceptor binding assays to identify clones having high adrenoreceptor density. Roller bottle cultures of the cloned lines were used to provide cell membranes for subsequent adrenoreceptor binding characterization studies. A cell line containing the SnaB30 vector expressing the human erythropoietin gene served as a negative control.
(§4) For adrenoreceptor binding assays, large scale membrane preparations were utilized in which 6 million cells were seeded into small (450 cm^2) Corning tissue culture roller bottles. 200 mL of DMEM containing 10% fetal calf serum and 300 µM G418 were added to each roller bottle. A 95% air / 5% CO2 gas mixture (sterile) was injected into each roller bottle prior to sealing. The bottles were then incubated at 37 °C on a roller rack for 5 days. Cells were re-fed with fresh medium after 3 days in culture.
as §1, §2

Assay [3] has as its target T3, α-1b adrenoreceptor (Mesocricetus auratus, UniProt P18841).
T3 sequence (P18841 1-515): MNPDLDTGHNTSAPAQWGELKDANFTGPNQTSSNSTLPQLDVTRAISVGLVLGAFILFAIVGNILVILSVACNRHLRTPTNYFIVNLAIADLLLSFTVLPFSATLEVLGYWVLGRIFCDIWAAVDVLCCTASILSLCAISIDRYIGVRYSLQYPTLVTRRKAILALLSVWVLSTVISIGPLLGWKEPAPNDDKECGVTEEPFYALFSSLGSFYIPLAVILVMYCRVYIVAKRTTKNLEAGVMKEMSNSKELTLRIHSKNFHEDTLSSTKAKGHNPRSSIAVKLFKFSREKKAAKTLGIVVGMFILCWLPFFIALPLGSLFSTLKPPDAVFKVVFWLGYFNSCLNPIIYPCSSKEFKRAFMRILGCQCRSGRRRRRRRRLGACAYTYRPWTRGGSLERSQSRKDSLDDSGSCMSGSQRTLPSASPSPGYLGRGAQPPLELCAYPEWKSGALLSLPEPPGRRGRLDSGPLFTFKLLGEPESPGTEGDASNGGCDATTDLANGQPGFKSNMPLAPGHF
It is filed as binding, hamster. Particulars: [3H]-prazosin radioligand; cloned receptor in LTK cell membranes; read-out: Radioligand Binding (Ki, nM) 1b (Hamster).
Description: as §3, §4, §1, §2

Assay [4] addresses T4, α-1d adrenoreceptor (Rattus norvegicus, UniProt P23944).
T4 sequence (P23944 1-561): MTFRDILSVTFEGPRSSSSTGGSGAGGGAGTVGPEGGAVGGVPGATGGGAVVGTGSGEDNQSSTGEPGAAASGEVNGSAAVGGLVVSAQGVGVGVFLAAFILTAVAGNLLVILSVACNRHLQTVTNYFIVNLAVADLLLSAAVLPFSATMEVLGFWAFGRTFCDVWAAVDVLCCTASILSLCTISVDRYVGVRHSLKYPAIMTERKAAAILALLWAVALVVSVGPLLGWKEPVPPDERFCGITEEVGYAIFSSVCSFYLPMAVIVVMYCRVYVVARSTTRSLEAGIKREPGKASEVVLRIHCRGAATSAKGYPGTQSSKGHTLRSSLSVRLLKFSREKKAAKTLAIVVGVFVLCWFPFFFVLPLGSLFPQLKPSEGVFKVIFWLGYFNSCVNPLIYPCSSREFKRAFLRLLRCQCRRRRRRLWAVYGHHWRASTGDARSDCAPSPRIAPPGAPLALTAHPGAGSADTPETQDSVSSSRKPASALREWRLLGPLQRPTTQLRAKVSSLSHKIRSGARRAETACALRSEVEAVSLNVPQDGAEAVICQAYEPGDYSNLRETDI
In kind it is binding. Particulars: [3H]-prazosin radioligand; cloned receptor in LTK cell membranes; read-out: Radioligand Binding (Ki, nM) 1d (Rat).
Description: as §3, §4, §1, §2

Where a name gives a salt, the structure may show the parent alone.

`COc1ccc2sc3c(=O)n(CCCCN4C[C@@H]5COc6cccc(OC)c6[C@H]5C4)c(=O)[nH]c3c2n1` [Example 7, 3-[4-((3aR,9bS)-trans-9-Methoxy-1,2,3,3a,4,9b-hexahydro-[1]-benzopyrano[3,4-c]pyrrol-2-yl)butyl]-8-methoxy-pyrido[2',3':4,5]thieno[3,2-d]pyrimidine-2,4(1H,3H)-dione hydrochloride]: the Ki in assay [1] came to 0.53 nM; in assay [2], 0.215 nM; in assay [3], 1.61 nM; in assay [4] it was 0.438 nM.
For `COc1cccc2c1[C@H]1CN(CCCCn3c(=O)[nH]c4c(sc5c(OC)ccnc54)c3=O)C[C@@H]1CO2` [Example 8, 3-[4-((3aR,9bS)-trans-9-Methoxy-1,2,3,3a,4,9b-hexahydro-[1]-benzopyrano[3,4-c]pyrrol-2-yl)butyl]-6-methoxy-pyrido[2',3':4,5]thieno[3,2-d]pyrimidine-2,4(1H,3H)-dione dihydrochloride], in that order: 0.762 nM, 0.362 nM, 4.19 nM and 1.42 nM.
For `COc1cccc2c1[C@H]1CN(CCCCn3c(=O)[nH]c4c(sc5ncc(-c6ccccc6)nc54)c3=O)C[C@@H]1CO2` [Example 9, 3-[4-((3aR,9bS)-trans-9-Methoxy-1,2,3,3a,4,9b-hexahydro-[1]-benzopyrano[3,4-c]pyrrol-2-yl)butyl]-8-phenyl-pyrazino[2',3':4,5]thieno[3,2-d]pyrimidine-2,4(1H,3H)-dione hydrochloride], in that order: 2.27 nM, 0.325 nM, 17.8 nM and 1.55 nM.
For `COc1cccc2c1[C@H]1CN(CCCCn3c(=O)[nH]c4c(sc5ncc(Cl)nc54)c3=O)C[C@@H]1CO2` [Example 10, 3-[4-((3aR,9bS)-trans-9-Methoxy-1,2,3,3a,4,9b-hexahydro-[1]-benzopyrano[3,4-c]pyrrol-2-yl)butyl]-8-chloro-pyrazino[2',3':4,5]thieno[3,2-d]pyrimidine-2,4(1H,3H)-dione hydrochloride], in that order: 0.662 nM, 0.406 nM, 10.4 nM and 1.6 nM.
Consider `COCCn1c(=O)n(CCCCN2C[C@@H]3COc4cccc(OC)c4[C@H]3C2)c(=O)c2sc3nccnc3c21` [Example 11, 3-[4-((3aR,9bS)-trans-9-Methoxy-1,2,3,3a,4,9b-hexahydro-[1]-benzopyrano[3,4-c]pyrrol-2-yl)butyl]-1-(2-Methoxyethyl)-pyrazino[2',3':4,5]thieno[3,2-d]pyrimidine-2,4(1H,3H)-dione hydrochloride], for which the Ki stood at 0.374 nM in assay [1], 0.243 nM in assay [2], 3.78 nM in assay [3] and 1.46 nM in assay [4].
Consider `COc1cccc2c1[C@H]1CN(CCCCn3c(=O)[nH]c4c(sc5nccnc54)c3=O)C[C@@H]1CO2` [Example 12, 3-[4-((3aR,9bS)-trans-9-Methoxy-1,2,3,3a.4,9b-hexahydro-[1]-benzopyrano[3,4-c]pyrrol-2-yl)butyl]-pyrazino[2',3':4,5]thieno[3,2-d]pyrimidine-2,4(1H,3H)-dione dihydrochloride], for which the Ki amounted to 0.52 nM in assay [1], 0.375 nM in assay [2], 5.25 nM in assay [3] and 2.17 nM in assay [4].
For `COc1cccc2c1[C@@H]1CN(CCCCn3c(=O)[nH]c4c(sc5nccnc54)c3=O)C[C@H]1CO2` [Example 14, 3-[4-((3aS,9bR)-trans-9-Methoxy-1,2,3,3a,4,9b-hexahydro-[1]-benzopyrano[3,4-c]pyrrol-2-yl)butyl]-pyrazino[2',3':4,5]thieno[3,2-d]pyrimidine-2,4(1H,3H)-dione dihydrochloride], in that order: 0.105 nM, 0.038 nM, 1.37 nM and 0.145 nM.
